For assay [1], the system named is Oryza sativa. The assay can be described thus: Induction of disease resistant in three-leaf stage of Oryza sativa (rice) plant against Xanthomonas oryzae pv. oryzae-induced leaf blight at 0.05 to 5 mg/pot after 7 days. The class given is functional, organism-based.
The subject of assay [2] is Oryza sativa. The assay can be described thus: Induction of PBZ1 gene expression in three-leaf stage of Oryza sativa (rice) plant leaf after 5 days by Northern blot analysis. The class given is functional, organism-based.
The test system of assay [3] is Oryza sativa. The assay can be described thus: Induction of disease resistant in three-leaf stage of Oryza sativa (rice) plant against Xanthomonas oryzae pv. oryzae-induced leaf blight after 7 days. It counts as functional, organism-based.
Assay [4] deals with Xanthomonas oryzae pv. oryzae. The assay can be described thus: Antibacterial activity against Xanthomonas oryzae pv. oryzae up to 1 mg/ml after 48 hr. The class given is functional, organism-based.
Assay [5] deals with Oryza sativa. The assay can be described thus: Induction of disease resistant in three-leaf stage of Oryza sativa (rice) plant against Xanthomonas oryzae pv. oryzae-induced leaf blight at 0.05 to 0.5 mg/pot after 7 days. It counts as functional, organism-based.
Assay [6] deals with Oryza sativa. Put plainly: Induction of disease resistant in three-leaf stage of Oryza sativa (rice) plant against Xanthomonas oryzae pv. oryzae-induced leaf blight at 5 mg/pot after 7 days. The class given is functional.

Molecules are shown by their SMILES. The source made the active and inactive calls. No cut-off for these calls is given here.

On to `CSC(=O)c1cccc2nnsc12`, for which the result in assay [1] was Active. In assay [2], the Activity entry is “Dose-dependent effect”.
In the case of `Cn1nc(Cl)cc1C(=O)O` [3-CHLORO-1-METHYL-1H-PYRAZOLE-5-CARBOXYLIC ACID], the Activity entry was “Dose-dependent effect” in assay [2], “Dose-dependent effect” in assay [3] and 99.5% in assay [6]. Further, the result in assay [4] was inactive. In assay [5], the result was Active.
For `C=CCOC1=NS(=O)(=O)c2ccccc21`, the result in assay [1] was Active. In addition, the Activity result in assay [2] is “Dose-dependent effect”.
With `N#CCNC(=O)c1ccnc(Cl)c1`, the Activity result in assay [2] was “Dose-dependent effect”.

The values above are taken from ChEMBL document CHEMBL3045433, “Induction of Resistance against Rice Bacterial Leaf Blight by 3-Chloro-1-methyl-1H-pyrazole-5-carboxylic Acid” (2005).
